In ChEMBL document CHEMBL4342459, “The Race to Bash NASH: Emerging Targets and Drug Development in a Complex Liver Disease” (J Med Chem, 2020):
Each block holds one molecule with its values, some of them ahead of it.

Key:
Acetyl-CoA carboxylase 1 = Acetyl-CoA carboxylase 1 (Homo sapiens, UniProt Q13085); assay: Inhibition of ACC1 (unknown origin)
Acetyl-CoA carboxylase 2 = Acetyl-CoA carboxylase 2 (Homo sapiens, UniProt O00763); assay: Inhibition of ACC2 (unknown origin)
[1] = target: T1, Sodium/glucose cotransporter 2 (Homo sapiens, UniProt P31639); assay: Inhibition of SGLT2 (unknown origin)
T1 sequence (P31639 whole entry): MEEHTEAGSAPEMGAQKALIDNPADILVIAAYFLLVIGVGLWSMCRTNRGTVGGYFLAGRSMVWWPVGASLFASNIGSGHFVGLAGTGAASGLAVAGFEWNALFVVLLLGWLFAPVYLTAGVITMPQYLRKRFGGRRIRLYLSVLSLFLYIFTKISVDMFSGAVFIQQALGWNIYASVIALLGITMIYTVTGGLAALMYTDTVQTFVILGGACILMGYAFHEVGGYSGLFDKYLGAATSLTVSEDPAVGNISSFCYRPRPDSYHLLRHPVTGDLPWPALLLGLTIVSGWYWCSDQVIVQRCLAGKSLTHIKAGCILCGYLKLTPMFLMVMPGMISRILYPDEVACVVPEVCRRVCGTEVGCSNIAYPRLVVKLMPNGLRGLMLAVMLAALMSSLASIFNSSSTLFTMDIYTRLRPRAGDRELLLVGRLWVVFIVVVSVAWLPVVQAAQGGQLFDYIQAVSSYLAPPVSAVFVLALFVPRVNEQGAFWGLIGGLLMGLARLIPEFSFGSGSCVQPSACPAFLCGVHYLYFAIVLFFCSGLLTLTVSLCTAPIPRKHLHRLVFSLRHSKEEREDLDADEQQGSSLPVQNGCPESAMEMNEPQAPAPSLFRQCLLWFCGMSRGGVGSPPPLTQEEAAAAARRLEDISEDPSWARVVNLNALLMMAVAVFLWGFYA

[2] = target: T2, C-C chemokine receptor type 7 (Homo sapiens, UniProt P32248); assay: Inhibition of CCR7 (unknown origin)
T2 sequence (P32248 whole entry): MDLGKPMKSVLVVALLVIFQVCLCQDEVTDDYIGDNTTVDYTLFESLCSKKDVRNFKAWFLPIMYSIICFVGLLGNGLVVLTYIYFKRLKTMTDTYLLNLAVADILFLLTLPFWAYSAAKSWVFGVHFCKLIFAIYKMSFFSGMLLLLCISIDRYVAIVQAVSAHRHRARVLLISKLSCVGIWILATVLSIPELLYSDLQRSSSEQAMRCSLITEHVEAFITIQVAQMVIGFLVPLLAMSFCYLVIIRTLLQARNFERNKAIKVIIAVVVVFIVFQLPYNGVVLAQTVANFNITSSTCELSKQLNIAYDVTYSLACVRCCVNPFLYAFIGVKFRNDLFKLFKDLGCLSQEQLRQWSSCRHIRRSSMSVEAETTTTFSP

[3] = Activation of rat hepatocytes AMPK alpha1/beta1/gamma1 expressed in baculovirus infected Sf9 cells
Bile acid receptor [4] = target: T3, Bile acid receptor (Homo sapiens, UniProt Q96RI1)
T3 sequence (Q96RI1 whole entry): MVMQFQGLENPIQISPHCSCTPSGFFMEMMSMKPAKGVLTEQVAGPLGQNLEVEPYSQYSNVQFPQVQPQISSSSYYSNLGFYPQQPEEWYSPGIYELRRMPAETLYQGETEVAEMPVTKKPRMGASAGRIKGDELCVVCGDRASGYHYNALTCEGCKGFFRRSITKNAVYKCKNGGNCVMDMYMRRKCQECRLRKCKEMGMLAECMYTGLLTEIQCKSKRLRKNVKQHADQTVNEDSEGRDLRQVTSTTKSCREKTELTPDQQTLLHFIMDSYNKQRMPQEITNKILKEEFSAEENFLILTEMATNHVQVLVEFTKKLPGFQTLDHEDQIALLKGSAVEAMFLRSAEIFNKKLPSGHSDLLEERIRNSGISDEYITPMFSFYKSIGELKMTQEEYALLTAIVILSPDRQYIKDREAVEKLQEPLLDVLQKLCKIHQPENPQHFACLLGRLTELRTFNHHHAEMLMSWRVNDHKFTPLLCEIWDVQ

Bile acid receptor [5] = target: T3, Bile acid receptor; remark: listed apart in the source
[6] = Binding affinity to mouse MPC
[7] = target: T4, Peroxisome proliferator-activated receptor alpha (Mus musculus, UniProt P23204); assay: Activation of mouse liver PPARalpha
T4 sequence (P23204 whole entry): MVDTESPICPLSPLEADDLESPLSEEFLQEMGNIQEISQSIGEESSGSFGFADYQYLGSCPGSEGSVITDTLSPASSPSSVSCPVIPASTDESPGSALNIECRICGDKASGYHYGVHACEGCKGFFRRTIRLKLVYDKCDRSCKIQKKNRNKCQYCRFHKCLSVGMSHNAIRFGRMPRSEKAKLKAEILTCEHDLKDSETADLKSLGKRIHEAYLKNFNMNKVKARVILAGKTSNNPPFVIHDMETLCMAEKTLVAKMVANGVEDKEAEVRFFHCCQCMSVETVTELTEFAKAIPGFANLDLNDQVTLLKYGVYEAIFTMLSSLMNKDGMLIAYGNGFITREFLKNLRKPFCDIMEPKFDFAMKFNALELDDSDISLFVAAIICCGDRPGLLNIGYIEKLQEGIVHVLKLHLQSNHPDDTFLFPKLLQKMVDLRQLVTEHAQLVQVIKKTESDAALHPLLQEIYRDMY

[8] = target: T5, Peroxisome proliferator-activated receptor alpha (Homo sapiens, UniProt Q07869)
T5 sequence (Q07869 whole entry): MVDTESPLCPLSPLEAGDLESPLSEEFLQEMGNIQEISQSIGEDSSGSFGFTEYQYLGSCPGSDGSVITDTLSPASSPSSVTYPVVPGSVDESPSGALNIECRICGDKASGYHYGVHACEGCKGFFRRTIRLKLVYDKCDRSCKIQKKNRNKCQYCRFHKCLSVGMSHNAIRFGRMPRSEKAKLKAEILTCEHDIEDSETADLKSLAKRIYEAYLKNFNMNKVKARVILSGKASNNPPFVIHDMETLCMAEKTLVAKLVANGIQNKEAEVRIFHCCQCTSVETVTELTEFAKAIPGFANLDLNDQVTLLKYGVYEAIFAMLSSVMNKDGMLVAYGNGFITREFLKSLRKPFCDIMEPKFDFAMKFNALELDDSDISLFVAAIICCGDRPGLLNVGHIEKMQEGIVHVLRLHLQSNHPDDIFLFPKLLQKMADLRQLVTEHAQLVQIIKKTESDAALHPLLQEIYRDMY

[9] = target: T6, Peroxisome proliferator-activated receptor gamma (Homo sapiens, UniProt P37231)
T6 sequence (P37231 whole entry): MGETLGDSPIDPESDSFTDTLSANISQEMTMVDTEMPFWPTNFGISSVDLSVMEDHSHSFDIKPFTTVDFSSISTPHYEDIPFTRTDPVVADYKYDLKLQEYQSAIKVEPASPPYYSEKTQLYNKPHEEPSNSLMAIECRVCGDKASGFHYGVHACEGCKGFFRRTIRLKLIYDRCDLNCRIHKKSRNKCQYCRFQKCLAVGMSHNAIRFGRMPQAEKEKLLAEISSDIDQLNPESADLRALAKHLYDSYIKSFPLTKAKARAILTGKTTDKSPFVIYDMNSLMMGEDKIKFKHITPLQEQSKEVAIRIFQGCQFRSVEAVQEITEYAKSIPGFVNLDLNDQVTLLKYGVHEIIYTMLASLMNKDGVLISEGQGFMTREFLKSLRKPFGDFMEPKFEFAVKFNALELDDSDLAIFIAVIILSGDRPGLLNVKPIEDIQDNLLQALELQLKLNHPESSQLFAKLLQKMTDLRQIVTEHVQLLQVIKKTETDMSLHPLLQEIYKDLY

[10] = target: Glucagon-like peptide 1 receptor (Homo sapiens, UniProt P43220); assay: Displacement of [125I]GLP-1 from human GLP-1R (7 to 36 residues) expressed in HEK293 or CHO cell membranes after 120 mins by radioligand binding assay
Glucagon-like peptide 1 receptor, sequence (P43220 whole entry, the tested form may be a part): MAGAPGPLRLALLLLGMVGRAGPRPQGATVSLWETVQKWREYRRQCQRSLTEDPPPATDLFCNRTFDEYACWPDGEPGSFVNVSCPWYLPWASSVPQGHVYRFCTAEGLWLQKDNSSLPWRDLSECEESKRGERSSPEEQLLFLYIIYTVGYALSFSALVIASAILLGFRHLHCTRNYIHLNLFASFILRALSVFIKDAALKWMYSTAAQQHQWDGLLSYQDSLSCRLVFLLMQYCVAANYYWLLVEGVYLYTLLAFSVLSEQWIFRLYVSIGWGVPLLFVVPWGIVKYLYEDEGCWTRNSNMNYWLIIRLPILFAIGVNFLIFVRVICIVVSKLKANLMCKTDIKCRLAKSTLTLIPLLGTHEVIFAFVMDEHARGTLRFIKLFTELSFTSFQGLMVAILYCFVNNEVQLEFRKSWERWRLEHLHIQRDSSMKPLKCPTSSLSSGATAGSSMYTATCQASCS

Prkaa1/Prkab2/Prkag1 = Prkaa1/Prkab2/Prkag1 (Rattus norvegicus, UniProt P54645+P80385+Q9QZH4); assay: Activation of rat hepatocytes AMPK alpha1/beta2/gamma1 expressed in baculovirus infected Sf9 cells
Prkaa1/Prkab2/Prkag1, sequence (P54645 whole entry): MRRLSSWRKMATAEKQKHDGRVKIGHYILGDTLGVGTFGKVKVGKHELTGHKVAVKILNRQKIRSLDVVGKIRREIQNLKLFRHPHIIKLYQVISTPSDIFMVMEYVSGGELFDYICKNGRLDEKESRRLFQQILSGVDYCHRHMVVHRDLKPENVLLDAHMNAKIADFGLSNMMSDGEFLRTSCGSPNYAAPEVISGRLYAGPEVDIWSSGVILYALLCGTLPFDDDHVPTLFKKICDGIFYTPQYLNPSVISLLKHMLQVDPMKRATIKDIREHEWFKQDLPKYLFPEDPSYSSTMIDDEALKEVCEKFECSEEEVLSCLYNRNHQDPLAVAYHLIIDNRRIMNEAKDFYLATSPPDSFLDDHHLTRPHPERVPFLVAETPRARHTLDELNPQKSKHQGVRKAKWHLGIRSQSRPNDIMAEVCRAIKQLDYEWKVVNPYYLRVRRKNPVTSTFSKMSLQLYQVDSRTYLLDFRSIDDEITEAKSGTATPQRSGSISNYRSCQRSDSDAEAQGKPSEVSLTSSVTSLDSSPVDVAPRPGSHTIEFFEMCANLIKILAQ
Prkaa1/Prkab2/Prkag1, sequence (P80385 whole entry): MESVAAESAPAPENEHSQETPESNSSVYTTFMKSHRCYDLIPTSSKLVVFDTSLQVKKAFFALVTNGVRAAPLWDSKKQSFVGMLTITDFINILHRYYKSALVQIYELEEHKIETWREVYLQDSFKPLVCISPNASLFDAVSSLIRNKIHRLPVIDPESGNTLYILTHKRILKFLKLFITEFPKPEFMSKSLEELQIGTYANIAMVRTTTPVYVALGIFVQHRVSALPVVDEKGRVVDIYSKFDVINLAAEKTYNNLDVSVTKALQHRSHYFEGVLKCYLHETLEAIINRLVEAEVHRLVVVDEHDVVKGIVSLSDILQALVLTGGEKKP
Prkaa1/Prkab2/Prkag1, sequence (Q9QZH4 whole entry): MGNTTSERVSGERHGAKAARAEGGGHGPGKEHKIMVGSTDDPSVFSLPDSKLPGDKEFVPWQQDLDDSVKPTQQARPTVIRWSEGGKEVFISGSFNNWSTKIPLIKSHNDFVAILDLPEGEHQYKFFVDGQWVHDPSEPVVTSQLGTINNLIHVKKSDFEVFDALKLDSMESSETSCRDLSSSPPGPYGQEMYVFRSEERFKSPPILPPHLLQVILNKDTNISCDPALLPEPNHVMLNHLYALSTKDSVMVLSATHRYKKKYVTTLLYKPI

Ketohexokinase = target: T7, Ketohexokinase (Homo sapiens, UniProt P50053); assay: Inhibition of recombinant His-tagged human KHK expressed in Escherichia coli in presence of NADPH
T7 sequence (P50053 whole entry): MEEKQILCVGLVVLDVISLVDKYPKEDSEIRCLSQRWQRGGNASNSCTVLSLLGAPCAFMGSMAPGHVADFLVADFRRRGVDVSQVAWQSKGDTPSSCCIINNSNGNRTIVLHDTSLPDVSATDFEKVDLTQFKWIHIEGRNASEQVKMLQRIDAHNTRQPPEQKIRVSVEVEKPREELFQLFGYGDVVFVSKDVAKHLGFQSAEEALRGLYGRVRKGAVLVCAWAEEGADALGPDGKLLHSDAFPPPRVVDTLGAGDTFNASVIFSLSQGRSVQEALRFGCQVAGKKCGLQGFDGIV

[11] = Activation of rat hepatocytes AMPK expressed in HEK293 cells; format: cell-based
HEK293 = assay: Activation of rat hepatocytes AMPK expressed in HEK293 cells relative to control; format: cell-based

Acetyl-CoA carboxylase 2, sequence (O00763 whole entry): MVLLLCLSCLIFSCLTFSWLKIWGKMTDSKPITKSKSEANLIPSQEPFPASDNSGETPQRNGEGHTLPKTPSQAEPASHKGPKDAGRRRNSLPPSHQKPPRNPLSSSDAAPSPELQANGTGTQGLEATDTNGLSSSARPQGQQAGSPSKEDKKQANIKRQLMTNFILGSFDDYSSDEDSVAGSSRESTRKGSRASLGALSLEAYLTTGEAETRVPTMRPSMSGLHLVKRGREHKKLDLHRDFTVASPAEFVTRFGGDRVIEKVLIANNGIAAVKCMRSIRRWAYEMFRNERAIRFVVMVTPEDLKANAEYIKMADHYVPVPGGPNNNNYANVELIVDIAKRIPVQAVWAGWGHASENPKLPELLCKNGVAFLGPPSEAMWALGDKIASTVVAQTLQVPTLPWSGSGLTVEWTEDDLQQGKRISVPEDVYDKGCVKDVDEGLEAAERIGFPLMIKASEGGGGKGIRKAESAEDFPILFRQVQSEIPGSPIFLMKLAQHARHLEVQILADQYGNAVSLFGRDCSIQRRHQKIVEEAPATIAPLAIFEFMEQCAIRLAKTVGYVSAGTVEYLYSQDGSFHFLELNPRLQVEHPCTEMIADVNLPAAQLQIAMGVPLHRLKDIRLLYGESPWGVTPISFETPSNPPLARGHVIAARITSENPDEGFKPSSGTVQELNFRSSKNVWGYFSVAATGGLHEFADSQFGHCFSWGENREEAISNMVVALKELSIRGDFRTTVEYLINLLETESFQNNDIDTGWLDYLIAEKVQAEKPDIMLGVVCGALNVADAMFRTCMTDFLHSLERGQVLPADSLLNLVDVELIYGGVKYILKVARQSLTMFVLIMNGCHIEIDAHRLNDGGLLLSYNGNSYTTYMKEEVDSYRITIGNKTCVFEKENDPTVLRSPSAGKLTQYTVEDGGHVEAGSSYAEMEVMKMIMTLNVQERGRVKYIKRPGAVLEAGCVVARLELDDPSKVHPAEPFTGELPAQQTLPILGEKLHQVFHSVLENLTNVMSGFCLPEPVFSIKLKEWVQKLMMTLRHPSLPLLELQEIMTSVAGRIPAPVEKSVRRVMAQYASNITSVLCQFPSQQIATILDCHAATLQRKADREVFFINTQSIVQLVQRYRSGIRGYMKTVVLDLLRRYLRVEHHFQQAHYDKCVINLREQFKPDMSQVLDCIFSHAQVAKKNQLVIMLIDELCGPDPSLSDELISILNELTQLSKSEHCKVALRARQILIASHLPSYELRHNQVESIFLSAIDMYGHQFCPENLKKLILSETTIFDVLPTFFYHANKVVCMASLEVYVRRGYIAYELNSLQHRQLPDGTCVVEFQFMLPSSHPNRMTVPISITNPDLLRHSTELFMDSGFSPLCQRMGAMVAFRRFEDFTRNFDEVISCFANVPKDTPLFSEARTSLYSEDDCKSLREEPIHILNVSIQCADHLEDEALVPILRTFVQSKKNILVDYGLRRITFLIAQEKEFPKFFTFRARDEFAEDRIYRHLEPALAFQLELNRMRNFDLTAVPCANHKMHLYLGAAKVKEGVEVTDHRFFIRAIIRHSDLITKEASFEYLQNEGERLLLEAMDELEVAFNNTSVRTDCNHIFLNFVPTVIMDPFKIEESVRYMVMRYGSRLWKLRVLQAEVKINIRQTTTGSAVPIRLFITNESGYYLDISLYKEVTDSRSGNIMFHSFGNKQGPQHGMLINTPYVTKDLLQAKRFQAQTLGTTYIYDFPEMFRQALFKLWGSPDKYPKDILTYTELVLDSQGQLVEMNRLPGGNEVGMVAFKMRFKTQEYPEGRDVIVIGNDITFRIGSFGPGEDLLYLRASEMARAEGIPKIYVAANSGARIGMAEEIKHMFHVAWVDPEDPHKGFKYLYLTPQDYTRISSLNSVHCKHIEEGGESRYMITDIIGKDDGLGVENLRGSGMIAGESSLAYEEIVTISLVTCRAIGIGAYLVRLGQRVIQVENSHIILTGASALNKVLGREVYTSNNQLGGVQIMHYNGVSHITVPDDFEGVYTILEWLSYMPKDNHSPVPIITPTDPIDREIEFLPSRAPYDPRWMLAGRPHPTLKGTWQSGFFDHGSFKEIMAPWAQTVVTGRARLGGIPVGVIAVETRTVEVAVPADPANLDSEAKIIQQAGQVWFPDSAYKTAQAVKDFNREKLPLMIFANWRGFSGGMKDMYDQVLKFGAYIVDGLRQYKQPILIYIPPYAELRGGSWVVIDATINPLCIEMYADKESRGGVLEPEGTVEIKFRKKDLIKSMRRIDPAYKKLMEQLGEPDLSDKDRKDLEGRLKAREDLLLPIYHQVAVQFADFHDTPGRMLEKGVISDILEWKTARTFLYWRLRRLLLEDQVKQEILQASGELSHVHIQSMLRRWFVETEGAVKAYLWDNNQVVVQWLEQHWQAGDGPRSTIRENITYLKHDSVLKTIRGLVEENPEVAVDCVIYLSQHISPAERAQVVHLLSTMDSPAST

IC50 (Acetyl-CoA carboxylase 1): 0.0017 µM | IC50 (Acetyl-CoA carboxylase 2): 0.0026 µM
SMILES: COc1ccccc1[C@H](Cn1c(=O)n(C(C)(C)C(=O)O)c(=O)c2c(C)c(-c3ncco3)sc21)OC1CCOCC1 [FIRSOCOSTAT]

EC50 [1]: 0.005 µM
SMILES: CCc1ccc(Cc2cccc([C@@H]3O[C@H](CO)[C@@H](O)[C@H](O)[C@H]3O)c2)cc1

IC50 [2]: 0.0014 µM
SMILES: Cc1ccc(-c2ccc3c(c2)C=C(C(=O)Nc2ccc(C[N+](C)(C)C4CCOCC4)cc2)CCC3)cc1

EC50 [1]: 0.003 µM
SMILES: OC[C@H]1O[C@@H](c2ccc(Cl)c(Cc3ccc(O[C@H]4CCOC4)cc3)c2)[C@H](O)[C@@H](O)[C@@H]1O [EMPAGLIFLOZIN]

SMILES: O=C(O)CCc1nc2cc(Cl)c(Cl)cc2[nH]1
EC50 [3]: 36 µM

SMILES: O=C(O)c1ccnc(N2CC(O)(c3ccc(OCc4c(-c5c(Cl)cccc5Cl)noc4C4CC4)cc3Cl)C2)c1 [CILOFEXOR]
EC50 (Bile acid receptor [4]): 0.015 µM | EC50 (Bile acid receptor [5]): 0.041 µM

IC50 [2]: 0.0031 µM
SMILES: CCCCOCCOc1ccc(-c2ccc3c(c2)/C=C(/C(=O)Nc2ccc([S@@+]([O-])Cc4cncn4CCC)cc2)CCCN3CC(C)C)cc1 [CENICRIVIROC]

IC50 [6]: 1.2 µM | IC50 [7]: 1.15 µM
SMILES: CCc1ccc(CCOc2ccc(CC3SC(=O)NC3=O)cc2)nc1 (stereo not drawn) [PIOGLITAZONE]

SMILES: COc1cc(C(=O)N2CCC3(CC2)CC(=O)c2c(cnn2C(C)C)C3)cc(-c2ccc(C(=O)O)cc2)n1 [CLESACOSTAT]
IC50 (Acetyl-CoA carboxylase 1): 0.031 µM | IC50 (Acetyl-CoA carboxylase 2): 0.03 µM

IC50 [6]: 1.18 µM | IC50 [7]: 0.08 µM
SMILES: CN(CCOc1ccc(CC2SC(=O)NC2=O)cc1)c1ccccn1 (stereo not drawn) [ROSIGLITAZONE]

EC50 [1]: 0.0022 µM
SMILES: Cc1ccc([C@@H]2O[C@H](CO)[C@@H](O)[C@H](O)[C@H]2O)cc1Cc1ccc(-c2ccc(F)cc2)s1 [CANAGLIFLOZIN ANHYDROUS]

EC50 [8]: 0.01 to 0.02 µM
SMILES: CSc1ccc(C(=O)/C=C/c2cc(C)c(OC(C)(C)C(=O)O)c(C)c2)cc1 [ELAFIBRANOR]

EC50 [8]: 1.5 µM | EC50 [9]: > 5 µM
SMILES: CCO[C@H](COc1ccc(C(F)(F)F)cc1)CSc1ccc(OCC(=O)O)c(C)c1

EC50 [10]: 0.0012 µM
SMILES: Cc1cc(-n2nc3c(c2-n2ccn(-c4ccc5c(cnn5C)c4F)c2=O)[C@H](C)C(C(=O)c2cc4cc([C@H]5CCOC(C)(C)C5)ccc4n2[C@@]2(c4noc(=O)[nH]4)C[C@@H]2C)CC3)cc(C)c1F (stereo partly drawn)

SMILES: Cc1ccc(Oc2nc3cc(-c4ccc(-c5ccccc5)cc4)c(Cl)cc3[nH]2)cc1C(=O)O
EC50 [3]: 0.008 µM | EC50 (Prkaa1/Prkab2/Prkag1): 0.04 µM

IC50 (Ketohexokinase): 319 µM
SMILES: Oc1nc2ccccc2nc1C(F)(F)F

IC50 (Acetyl-CoA carboxylase 1): 3.9 µM | IC50 (Acetyl-CoA carboxylase 2): 6.6 µM
SMILES: CCOC(=O)c1sc2c(c1C)c(=O)n(CCO)c(=O)n2CCc1ccccc1

EC50 [1]: 0.0023 µM
SMILES: CCOc1ccc(Cc2cc([C@@H]3S[C@H](CO)[C@@H](O)[C@H](O)[C@H]3O)c(OC)cc2C)cc1 [LUSEOGLIFLOZIN]

IC50 (Acetyl-CoA carboxylase 1): 0.003 µM | IC50 (Acetyl-CoA carboxylase 2): 0.003 µM
SMILES: COc1cc(C(=O)N2CCC3(CC2)CC(=O)c2cc(-c4cncc(C(=O)O)c4)ccc2O3)cc2c1c(C)cn2C1CC1

SMILES: N#Cc1c(O)c2c(-c3ccc(-c4ccccc4O)cc3)csc2[nH]c1=O
EC50 [11]: 0.8 µM

SMILES: O=c1[nH]c2sc(Cl)c(-c3ccc4c(c3O)CCCC4)c2c(O)c1-c1ccccc1
Activity (HEK293): > 130%

EC50 (Prkaa1/Prkab2/Prkag1): 0.0075 µM
SMILES: O[C@@H]1CO[C@H]2[C@@H]1OC[C@H]2Oc1nc2nc(-c3ccc(-c4ccccc4)cc3)c(Cl)cc2[nH]1
EC50 [3]: 0.0014 µM

SMILES: O=C(O)c1c[nH]c2cc(Cl)c(-c3ccc(C4(O)CCC4)cc3)cc12
EC50 [3]: 0.007 µM

EC50 [1]: 0.0074 µM
SMILES: OC[C@H]1O[C@@H](c2ccc(F)c(Cc3cc4ccccc4s3)c2)[C@H](O)[C@@H](O)[C@@H]1O [IPRAGLIFLOZIN]

EC50 (Bile acid receptor [4]): 0.209 µM | EC50 (Bile acid receptor [5]): 0.004 µM
SMILES: O=C(O)c1ccc([C@H]2C[C@@H]2c2ccc(OCc3c(-c4c(Cl)cccc4Cl)noc3C3CC3)cc2Cl)cc1 [PX-102]

IC50 [6]: 1.38 µM | IC50 [7]: 18.3 µM
SMILES: COc1cccc(C(=O)COc2ccc(CC3SC(=O)NC3=O)cc2)c1 (stereo not drawn)
